US20120094829A1, “Active Compound Combinations Having Insecticidal and Acaricidal Properties” (BAYER CROPSCIENCE AG, priority 2009, published 2012)

What was measured:
Format in all cases: in vivo
[1] = system: Phaedon cochleariae larvae; test: Phaedon cochleariae larvae test (sprayed cabbage leaves); settings: single active compound
Protocol: Phaedon cochleariae Larvae Test
(§1) Solvents: 78 parts by weight of acetone • • 1.5 parts by weight of dimethylformamide
(§2) Emulsifier: 0.5 part by weight of alkylaryl polyglycol ether
(§3) To produce a suitable preparation of active compound, 1 part by weight of active compound is mixed with the stated amount of solvent and emulsifier, and the concentrate is diluted with emulsifier-containing water to the desired concentration.
Cabbage leaves (Brassica oleracea) are treated by spraying with the active ingredient formulation of the desired concentration and populated with larvae of the mustard beetle (Phaedon cochleariae) while the leaves are still moist.
After the desired period of time, the kill in % is determined. 100% means that all beetle larvae have been killed; 0% means that none of the beetle larvae have been killed. The kill rates determined are entered into Colby's formula (see above).

[2] = system: Myzus persicae; test: Myzus persicae test (spray treatment of infested cabbage leaves); settings: single active compound; for Kill in % after 6d: 0.8 g/ha; for Kill in % after 1d: 4 g/ha
Protocol: as §1, §2, §3
Cabbage leaves (Brassica oleracea) which are heavily infested by the green peach aphid (Myzus persicae) are treated by spraying with the active compound preparation of the desired concentration.
After the desired period of time, the kill in % is determined. 100% means that all of the aphids have been killed; 0% means that none of the aphids have been killed. The kill rates determined are entered into Colby's formula (see above).

[3] = system: Tetranychus urticae; test: Tetranychus urticae test (OP-resistant/spray treatment of bean leaf discs); settings: single active compound
Protocol: Tetranychus urticae Test (OP-Resistant/Spray Treatment)
as §1, §2, §3
Discs of bean leaves (Phaseolus vulgaris) which are infested by all stages of the greenhouse red spider mite (Tetranychus urticae) are sprayed with the active compound preparation of the desired concentration.
After the desired period of time, the effect in % is determined. 100% means that all of the spider mites have been killed; 0% means that none of the spider mites have been killed.

[4] = system: Spodoptera frugiperda; test: Spodoptera frugiperda test (sprayed cabbage leaves); settings: 100 g/ha, single active compound
Protocol: Spodoptera frugiperda Test
as §1, §2, §3
Cabbage leaves (Brassica oleracea) are treated by being sprayed with the preparation of active compound of the desired concentration and are populated with larvae of the armyworm (Spodoptera frugiperda) while the leaves are still moist.
After the desired period of time, the kill in % is determined. 100% means that all caterpillars have been killed; 0% means that none of the caterpillars have been killed. The kill rates determined are entered into Colby's formula (see above).

Compound | Kill in % after 2d ([1]; 100 g/ha) [%] | Kill in % after 6d [2] [%] | Kill in % after 1d [2] [%] | Kill in % after 2d ([3]; 4 g/ha) [%] | Kill in % after 6d ([3]; 4 g/ha) [%] | Kill in % after 6d [4] [%] | Kill in % after 2d ([1]; 20 g/ha) [%] | Kill in % after 2d ([3]; 20 g/ha) [%] | Kill in % after 6d ([1]; 20 g/ha) [%]
O=C1C=C(N(CCF)Cc2ccc(Cl)nc2)CO1 [compound (I-4), 4-{[(6-chloropyrid-3-yl)methyl](2-fluoroethyl)amino}furan-2(5H)-one] | 33 | 0 | 20 | 0 | 0 | 0 |  |  | 
O=C1C=C(N(Cc2ccc(Cl)nc2)CC(F)F)CO1 [compound (I-5), 4-{[(6-chloropyrid-3-yl)methyl](2,2-difluoroethyl)amino}furan-2(5H)-one] |  | 30 |  | 0 | 0 |  | 0 | 0 | 
CN(Cc1cnc(Cl)c(F)c1)C1=CC(=O)OC1 [compound (I-6), 4-{[(6-chloro-5-fluoropyrid-3-yl)methyl](methyl)amino}furan-2(5H)-one] |  |  |  | 0 | 0 |  |  |  | 0
CCC(C)(C)C(=O)OC1=C(c2ccc(Cl)cc2Cl)C(=O)OC12CCCCC2 [spirodiclofen, reference compound] |  |  | 0 |  |  |  |  |  | 
Cc1cc(C)c(C2=C(OC(=O)CC(C)(C)C)C3(CCCC3)OC2=O)c(C)c1 [spiromesifen, reference compound] |  |  | 0 | 20 | 70 |  |  |  | 
spirotetramat [reference compound] | 50 | 20 |  | 20 |  | 0 | 0 | 70 | 0
